Peptide text beside a SMILES is read from it. * marks the point of attachment. Dansyl = CN(C)c1cccc2c(S(=O)(=O)*)cccc12
How the values were obtained:
[1] = system: P100 membrane fractions derived from Caco-2 cells; test: Dansylated peptide ELISA on P100: PAX2 and HAX42 peptides relative binding
Experimental: The peptides and proteins were analyzed by a dansylated peptide ELISA method in which 96 well plates were coated overnight at 4° C. with 100 μl/well coating protein (normally 100 μg/ml P100 membrane fraction) in 0.05M carbonate buffer pH9.6. Nonspecific binding was blocked using 200 μl/well, 2% Marvel/PBS for 2 hours at 37° C. prior to incubation with dansylated peptides. The plates were washed three times with PBS/0.05% Tween 20 and after each subsequent incubation step. […] A buffer blank control was included to ensure that background binding to plastic was not due to the antibodies used in the assay system. […] The plates were then incubated with an anti-mouse λ-HRP conjugated antibody (Southern Biotech 1060-05) at a 1:10,000 dilution in blocking solution, 100 μl/well for 1 hour at room temperature. Plates were developed using 75 μl/well Bionostics TMB substrate and incubated for approximately 10 minutes. The developing reaction was stopped using Bionostics Red Stop solution (25 μl/well), and the optical density of the plates was read at 650 nm.

[2] = Drug potency, peptide loading and size of coacervated particles; assay type: physicochemical; details: formulation 1 particles (coacervation), blend
[3] = HAX42 peptides, ratio to ZElan021 (arbitrary 1.00)
[4] = HAX42 peptides, ratio to ZElan021 (arbitrary 1.00), first 50 μg/ml column
[5] = HAX42 peptides, ratio to ZElan021 (arbitrary 1.00), second 50 μg/ml column
[6] = PAX2 peptides, ratio to ZElan021 (HAX42 = 1.00), first 20 μg/ml column
[7] = PAX2 peptides, ratio to ZElan021 (HAX42 = 1.00), first 50 μg/ml column
[8] = PAX2 peptides, ratio to ZElan021 (HAX42 = 1.00), second 20 μg/ml column
[9] = PAX2 peptides, ratio to ZElan021 (HAX42 = 1.00), second 50 μg/ml column

Compound | Binding value at 20 μg/ml [1, 3] | Binding value at 50 μg/ml [1, 4] | Binding value at 50 μg/ml [1, 5] | other results
CC(C)C[C@H](NC(=O)[C@H](C)NC(=O)[C@H](Cc1c[nH]cn1)NC(=O)[C@H](CC(=O)O)NC(=O)[C@H](CO)NC(=O)[C@@H](N)CCCCNS(=O)(=O)c1cccc2c(N(C)C)cccc12)C(=O)NCC(=O)N[C@H](C(=O)N[C@@H](CC(N)=O)C(=O)N[C@@H](CC(C)C)C(=O)N[C@@H](CCCNC(=N)N)C(=O)N[C@@H](CO)C(=O)N[C@@H](CC(=O)O)C(=O)N[C@@H](CC(N)=O)C(=O)N[C@@H](C)C(=O)N[C@@H](CCCCN)C(=O)N[C@@H](CCC(=O)O)C(=O)N1CCC[C@H]1C(=O)NCC(=O)N[C@@H](CC(=O)O)C(=O)N[C@@H](Cc1ccc(O)cc1)C(=O)N[C@@H](CC(N)=O)C(=O)N[C@@H](CS)C(=O)N[C@@H](CS)C(=O)NCC(=O)N[C@@H](CC(N)=O)C(=O)NCC(=O)N[C@@H](CC(N)=O)C(=O)N[C@@H](CO)C(=O)N[C@H](C(N)=O)[C@@H](C)O)[C@@H](C)O [ZElan070] (H-K(Dansyl)SDHALGTNLRSDNAKEPGDYNCCGNGNST-NH2) | 0.59 | 0.97 | 0.39 | –
CC(C)C[C@H](NC(=O)[C@H](CCCNC(=N)N)NC(=O)[C@H](CCCNC(=N)N)NC(=O)[C@@H](N)CCCCNS(=O)(=O)c1cccc2c(N(C)C)cccc12)C(=O)N[C@@H](CCCNC(=N)N)C(=O)N[C@H](C(=O)N[C@@H](CCCNC(=N)N)C(=O)N[C@@H](CO)C(=O)N[C@@H](CCCNC(=N)N)C(=O)N1CCC[C@H]1C(=O)N[C@@H](CC(N)=O)C(N)=O)[C@@H](C)O [ZElan056] (H-K(Dansyl)RRLRTRSRPN-NH2) | – | – | – | Binding value at 20 μg/ml [1, 6]: 0.00; Binding value at 50 μg/ml [1, 7]: 0.21; Binding value at 20 μg/ml [1, 8]: 0.16; Binding value at 50 μg/ml [1, 9]: 0.21
CC(C)C[C@H](NC(=O)[C@H](C)NC(=O)[C@H](Cc1c[nH]cn1)NC(=O)[C@H](CC(=O)O)NC(=O)[C@H](CO)NC(=O)[C@@H](N)CCCCNS(=O)(=O)c1cccc2c(N(C)C)cccc12)C(=O)NCC(=O)N[C@H](C(=O)N[C@@H](CC(N)=O)C(=O)N[C@@H](CC(C)C)C(=O)N[C@@H](CCCNC(=N)N)C(=O)N[C@@H](CO)C(=O)N[C@@H](CC(=O)O)C(=O)N[C@@H](CC(N)=O)C(=O)N[C@@H](C)C(=O)N[C@@H](CCCCN)C(=O)N[C@@H](CCC(=O)O)C(=O)N1CCC[C@H]1C(=O)NCC(=O)N[C@@H](CC(=O)O)C(=O)N[C@@H](Cc1ccc(O)cc1)C(=O)N[C@@H](CC(N)=O)C(=O)N[C@@H](CS)C(=O)N[C@@H](CS)C(=O)NCC(=O)N[C@@H](CC(N)=O)C(=O)NCC(N)=O)[C@@H](C)O [ZElan060] (H-K(Dansyl)SDHALGTNLRSDNAKEPGDYNCCGNG-NH2) | 0.44 | 0.56 | 0.43 | –
CN(C)c1cccc2c(S(=O)(=O)NCCCC[C@H](N)C(=O)N[C@@H](CC(N)=O)C(=O)N[C@@H](CCCNC(=N)N)C(=O)N[C@@H](CCCNC(=N)N)C(=O)N[C@@H](CCCNC(=N)N)C(=O)N3CCC[C@H]3C(=O)N[C@@H](CO)C(N)=O)cccc12 [ZElan067, H2N-K(dns)NRRRPS-CONH2] (H-K(Dansyl)NRRRPS-NH2) | 0.08 | 0.52 | 0.40 | –
CC(C)[C@H](NC(=O)[C@H](CCCCN)NC(=O)[C@H](CCCNC(=N)N)NC(=O)[C@@H](N)CCCCNS(=O)(=O)c1cccc2c(N(C)C)cccc12)C(=O)N[C@@H](Cc1ccccc1)C(=O)N[C@@H](CC(N)=O)C(=O)N[C@@H](CCCNC(=N)N)C(=O)N[C@@H](CCCNC(=N)N)C(=O)N[C@@H](CCCNC(=N)N)C(=O)N1CCC[C@H]1C(=O)N[C@@H](CO)C(N)=O [ZElan065] (H-K(Dansyl)RKVFNRRRPS-NH2) | 0.00 | 0.54 | 0.30 | –
SPCGGSWGRFMQGGLFGGRTDGCGAHRNRTSASLEPPSSDY [SNi34] | – | – | – | Insulin (insulin potency) ([2]; coated with the named peptide): 61.5 mg/g; Peptide (level of peptide coated onto the particles) ([2]; measured by fluorescence): 4.03 µL/mg
CC(C)C[C@H](NC(=O)[C@H](CCCNC(=N)N)NC(=O)[C@H](CCCNC(=N)N)NC(=O)[C@H](CC(N)=O)NC(=O)[C@H](Cc1c[nH]cn1)NC(=O)[C@H](CO)NC(=O)[C@H](CO)NC(=O)[C@@H](N)CCCCNS(=O)(=O)c1cccc2c(N(C)C)cccc12)C(=O)N[C@@H](CCCNC(=N)N)C(=O)N[C@H](C(=O)N[C@@H](CCCNC(=N)N)C(N)=O)[C@@H](C)O [ZElan035] (H-K(Dansyl)SSHNRRLRTR-NH2) | – | – | – | Binding value at 20 μg/ml [1, 6]: 0.12; Binding value at 50 μg/ml [1, 7]: 0.81; Binding value at 20 μg/ml [1, 8]: 0.43; Binding value at 50 μg/ml [1, 9]: 0.77
CC(C)C[C@H](NC(=O)[C@H](CCCNC(=N)N)NC(=O)[C@H](CO)NC(=O)[C@@H](NC(=O)[C@H](CCCCN)NC(=O)[C@H](CC(N)=O)NC(=O)[C@H](CCCNC(=N)N)NC(=O)[C@@H](NC(=O)[C@H](CC(N)=O)NC(=O)[C@H](CCCNC(=N)N)NC(=O)[C@@H](N)CCCCNS(=O)(=O)c1cccc2c(N(C)C)cccc12)[C@@H](C)O)[C@@H](C)O)C(=O)N[C@@H](CO)C(=O)N[C@@H](C)C(=O)N[C@@H](CC(N)=O)C(=O)N1CCC[C@H]1C(=O)N[C@@H](Cc1c[nH]cn1)C(=O)N[C@@H](CCCNC(=N)N)C(=O)N[C@@H](CO)C(=O)N[C@@H](Cc1c[nH]cn1)C(=O)N[C@@H](CCCNC(=N)N)C(N)=O [ZElan084] (H-K(Dansyl)RNTRNKTSRLSANPHRSHR-NH2) | – | – | – | Binding value at 20 μg/ml [1, 8]: 0.93; Binding value at 50 μg/ml [1, 9]: 0.77
CC(C)C[C@H](NC(=O)[C@H](C)NC(=O)[C@H](Cc1c[nH]cn1)NC(=O)[C@H](CC(=O)O)NC(=O)[C@H](CO)NC(=O)[C@@H](N)CCCCNS(=O)(=O)c1cccc2c(N(C)C)cccc12)C(=O)NCC(=O)N[C@H](C(=O)N[C@@H](CC(N)=O)C(=O)N[C@@H](CC(C)C)C(=O)N[C@@H](CCCNC(=N)N)C(=O)N[C@@H](CO)C(=O)N[C@@H](CC(=O)O)C(=O)N[C@@H](CC(N)=O)C(=O)N[C@@H](C)C(=O)N[C@@H](CCCCN)C(=O)N[C@@H](CCC(=O)O)C(=O)N1CCC[C@H]1C(=O)NCC(N)=O)[C@@H](C)O [ZElan062] (H-K(Dansyl)SDHALGTNLRSDNAKEPG-NH2) | 0.11 | 0.42 | 0.34 | –
H-K(Dansyl)SDHALGTNLRSDNAKEPGDYNCCGNGNSTGRKVFNRRRPSAIPT-NH2 (cysteines drawn unpaired) [ZElan021] | 1.00 | 1.00 | 1.00 | Binding value at 25 μg/ml ([1]; HAX42 peptides, ratio to ZElan021 (arbitrary 1.00), first 25 μg/ml column): 1.00; Binding value at 25 μg/ml ([1]; HAX42 peptides, ratio to ZElan021 (arbitrary 1.00), second 25 μg/ml column): 1.00; Binding value at 25 μg/ml ([1]; HAX42 peptides, ratio to ZElan021 (arbitrary 1.00), third 25 μg/ml column): 1.00
H-K(Dansyl)STPPSREAYSRPYSVDSDSDTNAKHSSHNRRLRTRSRPNG-NH2 [ZElan018] | – | – | – | Binding value at 20 μg/ml [1, 6]: −0.33; Binding value at 50 μg/ml [1, 7]: 0.95
CC[C@H](C)[C@H](NC(=O)[C@H](C)NC(=O)[C@H](CO)NC(=O)[C@@H]1CCCN1C(=O)[C@H](CCCNC(=N)N)NC(=O)[C@H](CCCNC(=N)N)NC(=O)[C@H](CC(N)=O)NC(=O)[C@H](Cc1ccccc1)NC(=O)[C@@H](NC(=O)[C@H](CCCCN)NC(=O)[C@H](CCCNC(=N)N)NC(=O)CNC(=O)[C@@H](NC(=O)[C@H](CO)NC(=O)[C@H](CC(N)=O)NC(=O)CNC(=O)[C@H](CC(N)=O)NC(=O)CNC(=O)[C@H](CS)NC(=O)[C@H](CS)NC(=O)[C@H](CC(N)=O)NC(=O)[C@H](Cc1ccc(O)cc1)NC(=O)[C@H](CC(=O)O)NC(=O)CNC(=O)[C@@H]1CCCN1C(=O)[C@@H](N)CCCCNS(=O)(=O)c1cccc2c(N(C)C)cccc12)[C@@H](C)O)C(C)C)C(=O)N1CCC[C@H]1C(=O)N[C@H](C(N)=O)[C@@H](C)O [ZElan072] (H-K(Dansyl)PGDYNCCGNGNSTGRKVFNRRPSAIPT-NH2) | 0.83 | 0.61 | 0.88 | –
